Article PMC5620609 (Pharmaceuticals, 2017)
Read-outs that look alike come from different tables or passages of the source.

Tests used:
THP-1 cells = assay: Morphology (Giemsa stain) of THP-1 cells; type: cell-based, human; details: 6 days following exposure
[1] = tested on: HL-60 human leukemia (TP53 null) xenograft; type: in vivo
Protocol: (§1) Drugs were administered IV for 3 consecutive days a week for 3 weeks. HL-60 is a human leukemia cell line (TP53 null) that is part of the NCI 60 cell line panel and can be grown in nude mice.
(§2) First, 10^7 tumor cells from culture in Matrigel™ of HL-60 human leukemia or LoVo colon cancer were implanted subcutaneously in the flank of 1.75-fold the number of NCr-nu/nu mice required for the study. Study initiation began when the required number of mice had tumors of approximately: • 100 to 250 mm^3 (target group mean tumor volume of approximately 175 mm^3) for the first set of studies. • 14 to 63 mm^3 (target group mean tumor weight of approximately 30 mm^3) for the second set of studies.
(§3) Mice with tumors in the proper volume range were arbitrarily assigned to groups. Mice received test article on 3 consecutive days per week for 3 weeks. Mice were observed daily for mortality and moribundity with weights and the tumor measurements taken twice weekly. Tumor volume was determined using the formula for an ellipsoid sphere: Length × Width^2/2 = Volume (mm^3). The experiments were scheduled to last for 60 days from the day of tumor implant. Any animal whose weight decreased more than 30% from the weight on the first day of treatment or whose tumor reached 4000 mm^3 in volume, ulcerated or sloughed off, or was moribund was euthanized prior to study termination.

[2] = tested on: LoVo colon cancer (TP53 WT) xenograft; type: in vivo
Protocol: as §1, §2, §3

[3] = Hydrolysis of the 5-azacytosine base; type: physicochemical; details: data not shown
CCRF-CEM = assay: NCI 60 cell line panel: CCRF-CEM; type: cell-based, human; details: Leukemia, TP53 null/mutant
Text: (§4) Details of the NCI 60 One Dose Screen are well known and available online.

K-562 = assay: NCI 60 cell line panel: K-562; type: cell-based, human; details: Leukemia, TP53 null/mutant
Text: as §4

MOLT-4 = assay: NCI 60 cell line panel: MOLT-4; type: cell-based, human; details: Leukemia, TP53 null/mutant
Text: as §4

SR = assay: NCI 60 cell line panel: SR; type: cell-based, human; details: Leukemia, TP53 wild type
Text: as §4

NCI-H23 = assay: NCI 60 cell line panel: NCI-H23; type: cell-based, human; details: NSCL, TP53 null/mutant
Text: as §4

NCI-H322M = assay: NCI 60 cell line panel: NCI-H322M; type: cell-based, human; details: NSCL, TP53 null/mutant
Text: as §4

HCC-2998 = assay: NCI 60 cell line panel: HCC-2998; type: cell-based, human; details: Colon cancer, TP53 null/mutant
Text: as §4

HCT-116 = assay: NCI 60 cell line panel: HCT-116; type: cell-based, human; details: Colon cancer, TP53 wild type
Text: as §4

HT29 = assay: NCI 60 cell line panel: HT29; type: cell-based, human; details: Colon cancer, TP53 null/mutant
Text: as §4

LOX IMVI = assay: NCI 60 cell line panel: LOX IMVI; type: cell-based, human; details: Melanoma, TP53 wild type
Text: as §4

M14 = assay: NCI 60 cell line panel: M14; type: cell-based, human; details: Melanoma, TP53 null/mutant
Text: as §4

MDA-MB-435 = assay: NCI 60 cell line panel: MDA-MB-435; type: cell-based, human; details: Melanoma, TP53 null/mutant
Text: as §4

SK-MEL-28 = assay: NCI 60 cell line panel: SK-MEL-28; type: cell-based, human; details: Melanoma, TP53 null/mutant
Text: as §4

SK-MEL-5 = assay: NCI 60 cell line panel: SK-MEL-5; type: cell-based, human; details: Melanoma, TP53 wild type
Text: as §4

UACC-257 = assay: NCI 60 cell line panel: UACC-257; type: cell-based, human; details: Melanoma, TP53 wild type
Text: as §4

OVCAR-3 = assay: NCI 60 cell line panel: OVCAR-3; type: cell-based, human; details: Ovarian cancer, TP53 null/mutant
Text: as §4

OVCAR-5 = assay: NCI 60 cell line panel: OVCAR-5; type: cell-based, human; details: Ovarian cancer, TP53 wild type
Text: as §4

786-0 = assay: NCI 60 cell line panel: 786-0; type: cell-based, human; details: Renal cancer, TP53 null/mutant
Text: as §4

A498 = assay: NCI 60 cell line panel: A498; type: cell-based, human; details: Renal cancer, TP53 wild type
Text: as §4

CAKI-1 = assay: NCI 60 cell line panel: CAKI-1; type: cell-based, human; details: Renal cancer, TP53 wild type
Text: as §4

MCF7 = assay: NCI 60 cell line panel: MCF7; type: cell-based, human; details: Breast cancer, TP53 wild type
Text: as §4

HS 578T = assay: NCI 60 cell line panel: HS 578T; type: cell-based, human; details: Breast cancer, TP53 null/mutant
Text: as §4

[4] = nude mice; same schedule
Protocol: (§5) Three mice were placed in a dose group on the first day of treatment (Day 1). […] Animals were observed daily for mortality and moribundity. Body weights were measured daily starting on day 1.

in vivo = details: nude, mouse, iv
Protocol: as §5

DNMT1 = DNMT1 (Homo sapiens, UniProt P26358); assay: Western blot for DNMT1, THP-1 cells; type: cell-based; design: cytoplasmic and nuclear protein extracts from cells; endogenous in cells; host or cells: THP-1; details: 0.1 and 0.2 µM, 6 days after exposure
Chain of DNMT1 (P26358 whole entry): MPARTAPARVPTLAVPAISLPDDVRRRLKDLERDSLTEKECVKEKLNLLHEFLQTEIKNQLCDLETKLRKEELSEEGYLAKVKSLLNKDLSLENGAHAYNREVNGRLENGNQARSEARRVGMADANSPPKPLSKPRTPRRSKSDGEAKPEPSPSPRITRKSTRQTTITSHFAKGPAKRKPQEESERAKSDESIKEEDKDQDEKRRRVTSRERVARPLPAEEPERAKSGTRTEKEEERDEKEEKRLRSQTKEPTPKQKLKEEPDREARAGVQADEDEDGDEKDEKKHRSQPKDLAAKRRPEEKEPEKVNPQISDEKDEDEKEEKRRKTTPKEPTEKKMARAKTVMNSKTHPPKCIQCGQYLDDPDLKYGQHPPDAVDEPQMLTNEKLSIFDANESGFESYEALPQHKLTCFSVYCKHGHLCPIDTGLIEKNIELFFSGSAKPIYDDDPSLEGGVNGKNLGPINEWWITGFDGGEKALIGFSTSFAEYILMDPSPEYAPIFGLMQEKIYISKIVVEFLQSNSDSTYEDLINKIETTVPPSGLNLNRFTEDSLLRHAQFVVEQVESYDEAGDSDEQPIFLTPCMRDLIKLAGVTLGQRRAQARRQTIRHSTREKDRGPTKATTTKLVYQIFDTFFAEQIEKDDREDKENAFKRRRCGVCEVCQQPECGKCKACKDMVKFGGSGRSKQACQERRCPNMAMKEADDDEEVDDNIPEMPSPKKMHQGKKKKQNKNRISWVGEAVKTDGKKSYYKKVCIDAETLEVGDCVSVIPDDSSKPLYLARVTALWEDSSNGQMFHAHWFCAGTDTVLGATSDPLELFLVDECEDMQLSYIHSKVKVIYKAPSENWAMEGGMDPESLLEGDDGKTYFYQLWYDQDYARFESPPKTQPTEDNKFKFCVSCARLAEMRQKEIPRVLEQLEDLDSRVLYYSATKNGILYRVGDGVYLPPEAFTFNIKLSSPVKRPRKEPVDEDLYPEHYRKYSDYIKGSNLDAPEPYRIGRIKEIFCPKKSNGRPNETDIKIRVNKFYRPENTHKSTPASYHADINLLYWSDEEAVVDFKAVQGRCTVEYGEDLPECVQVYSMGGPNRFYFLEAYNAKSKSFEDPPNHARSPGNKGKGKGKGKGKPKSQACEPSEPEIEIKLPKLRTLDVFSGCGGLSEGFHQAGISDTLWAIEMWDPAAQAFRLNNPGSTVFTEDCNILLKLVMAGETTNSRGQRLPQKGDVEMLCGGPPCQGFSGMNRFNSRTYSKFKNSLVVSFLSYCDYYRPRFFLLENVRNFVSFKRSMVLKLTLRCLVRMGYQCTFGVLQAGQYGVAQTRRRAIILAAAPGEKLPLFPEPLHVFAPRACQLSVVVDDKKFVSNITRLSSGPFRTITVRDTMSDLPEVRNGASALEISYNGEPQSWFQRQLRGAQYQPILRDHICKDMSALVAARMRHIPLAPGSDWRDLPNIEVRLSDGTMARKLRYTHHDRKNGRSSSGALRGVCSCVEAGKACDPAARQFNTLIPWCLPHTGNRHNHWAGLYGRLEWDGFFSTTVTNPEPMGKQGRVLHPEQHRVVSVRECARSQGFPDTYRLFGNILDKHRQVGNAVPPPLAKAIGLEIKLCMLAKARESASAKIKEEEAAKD
Protocol: Cells were co-stained with Annexin-V and PI on day 2 and analyzed by flow cytometry.
Approximately 100 µg of cytoplasmic and nuclear protein extracts from cells, together with molecular weight markers, were subjected to SDS-PAGE on 4–12% gradient gels (Invitrogen, Carlsbad, CA, USA) followed by transfer to polyvinylidene fluoride membranes (Invitrogen). Blots were probed using antibodies for DNMT1 (Abcam ab16632).

Q: What does the source list for `Nc1ncn([C@@H]2O[C@H](CO)[C@@H](O)C2(F)F)c(=O)n1` [NUC013, 5-aza-2′,2′-difluroro deoxycytidine]?
A: morphologic changes (THP-1 cells): morphologic changes suggestive of cell differentiation; median survival (MS) ([1]; HL-60 first study, NUC013 5.8 mg/kg IV, saline MS = 25 days): 28.5 days; mice died or euthanized for moribundity (out of 10) ([1]; HL-60 first study, NUC013 equimolar dose (5.8 mg/kg) IV): none; median survival (MS) ([1]; HL-60 second study, NUC013 20 mg/kg IV, saline MS = 26.5 days): 32 days; tumor volume lower than saline control (maximum) ([1]; HL-60 second study, NUC013 20 mg/kg IV, study days 21 and 25): 47.8%; median survival (MS) ([2]; LoVo first study, NUC013 5.8 mg/kg IV): 60 days; mean tumor volume lower compared to controls ([2]; LoVo first study, NUC013 equimolar dose (5.8 mg/kg) IV, study day 27): 24.3%; median survival (MS) ([2]; LoVo second study, NUC013 20 mg/kg IV): undefined; mean tumor volume lower compared to controls ([2]; LoVo second study, NUC013 20 mg/kg IV, study day 30): 50.9%; median survival (MS) ([2]; LoVo second study, NUC013 40 mg/kg IV): undefined; mean tumor volume lower compared to controls ([2]; LoVo second study, NUC013 40 mg/kg IV, study day 30): 53.7%; hydrolysis at the 6-position of the cytosine ring [3]: susceptible to hydrolysis; Growth (%) at 10 µM (CCRF-CEM): 23.67%; Growth (%) at 10 µM (K-562): 65.66%; Growth (%) at 10 µM (MOLT-4): 35.63%; Growth (%) at 10 µM (SR): 14.99%; Growth (%) at 10 µM (NCI-H23): 30.61%; Growth (%) at 10 µM (NCI-H322M): 70.00%; Growth (%) at 10 µM (HCC-2998): 60.44%; Growth (%) at 10 µM (HCT-116): 29.84%; Growth (%) at 10 µM (HT29): 70.09%; Growth (%) at 10 µM (LOX IMVI): 34.53%; Growth (%) at 10 µM (M14): 15.55%; Growth (%) at 10 µM (MDA-MB-435): 53.04%; Growth (%) at 10 µM (SK-MEL-28): 78.46%; Growth (%) at 10 µM (SK-MEL-5): 70.84%; Growth (%) at 10 µM (UACC-257): 77.54%; Growth (%) at 10 µM (OVCAR-3): 70.56%; Growth (%) at 10 µM (OVCAR-5): 86.95%; Growth (%) at 10 µM (786-0): 26.29%; Growth (%) at 10 µM (A498): 38.04%; Growth (%) at 10 µM (CAKI-1): 27.86%; Growth (%) at 10 µM (MCF7): 20.74%; Growth (%) at 10 µM (HS 578T): 90.37%; difference in MTD versus decitabine [4]: greater than 24 fold; MTD at 3 weeks (in vivo): > 120 mg/kg; DNMT1 inhibition by western blot (DNMT1): comparable to decitabine
